From ChEMBL document CHEMBL1201862, “PubChem BioAssay data set” (2004)
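These data come from cells grown in 96-well plates and exposed to compound for 48 hours at five concentrations. GI50 is the concentration that inhibits growth by half.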 The source made the active and inactive calls. Rule as the data show it: active = GI50 up to about 1.1 µM and inactive = higher.

Experiments:
Experiment in all cases: NCI tumour cell line growth inhibition, 48 h
NCI-H460 = test system: NCI-H460
HL-60 = test system: HL-60
MOLT-4 = test system: MOLT-4
OVCAR-3 = test system: OVCAR-3
OVCAR-5 = test system: OVCAR-5
Malme-3M = test system: Malme-3M
SN12C = test system: SN12C
UACC-257 = test system: UACC-257
SNB-19 = test system: SNB-19
DMS-273 = test system: DMS-273
RXF 393 = test system: RXF 393
HCT-116 = test system: HCT-116
SF-295 = test system: SF-295
HCC 2998 = test system: HCC 2998
EKVX = test system: EKVX
NCI-H226 = test system: NCI-H226
DLD-1 = test system: DLD-1
ACHN = test system: ACHN
PC-3 = test system: PC-3
DU-145 = test system: DU-145

Measured: GI50

COc1ccc(C(=O)O/N=C2/CCC/C2=C\c2ccccc2)cc1
inactive: NCI-H460 > 100 µM | HL-60 > 85.9 µM | MOLT-4 > 100 µM | OVCAR-3 > 100 µM | OVCAR-5 > 100 µM | Malme-3M > 100 µM | SN12C > 100 µM | UACC-257 > 100 µM | SNB-19 > 100 µM | DMS-273 > 100 µM | RXF 393 > 83 µM | HCT-116 > 100 µM | SF-295 > 65.8 µM | HCC 2998 > 100 µM | EKVX > 100 µM | NCI-H226 > 100 µM | DLD-1 > 100 µM | ACHN > 94.8 µM

COC(=O)C1=C(SC)SC2(C(=O)OC)C3C=C(C)C4C(N13)C42C(=O)OC (centres undefined)
inactive: NCI-H460 > 100 µM | HL-60 > 100 µM | MOLT-4 > 100 µM | OVCAR-3 > 100 µM | OVCAR-5 > 100 µM | Malme-3M > 100 µM | SN12C > 100 µM | UACC-257 > 100 µM | SNB-19 > 100 µM | DMS-273 > 100 µM | RXF 393 > 100 µM | HCT-116 > 100 µM | SF-295 > 100 µM | HCC 2998 > 100 µM | EKVX > 100 µM | NCI-H226 > 100 µM | DLD-1 > 100 µM | ACHN > 100 µM

O=C1O/C(=C(/c2ccc(Cl)cc2)c2nc3ccccc3[nH]2)C(O)=C1c1ccc(Cl)cc1
inactive: NCI-H460 2.73 µM | HL-60 2 µM | MOLT-4 1.95 µM | OVCAR-3 2.38 µM | OVCAR-5 2.43 µM | Malme-3M 2 µM | SN12C 2.72 µM | UACC-257 2.03 µM | SNB-19 2.93 µM | DMS-273 2.08 µM | RXF 393 2.26 µM | HCT-116 1.93 µM | SF-295 3.99 µM | HCC 2998 2.83 µM | EKVX 1.46 µM | NCI-H226 2.1 µM | DLD-1 3.05 µM | ACHN 2.51 µM

Oc1ncc(N(CCCl)CCCl)c(O)n1 [URACIL MUSTARD]
inactive: NCI-H460 3.48 µM | HL-60 1.43 µM | MOLT-4 1.59 µM | OVCAR-3 74.6 µM | OVCAR-5 39.3 µM | Malme-3M 32.8 µM | SN12C 8.65 µM | PC-3 57.3 µM | UACC-257 51.1 µM | SNB-19 42.1 µM | DMS-273 4.55 µM | DU-145 22.3 µM | RXF 393 20.7 µM | HCT-116 49 µM | SF-295 14.7 µM | HCC 2998 62.7 µM | EKVX 85.7 µM | NCI-H226 48.2 µM | DLD-1 78.3 µM | ACHN 2.67 µM
